Where a name gives a salt, the structure may show the parent alone.
Assay: Impurity profile (related substances) by HPLC, initial and after one month at 40° C. (stability study)
Assay type: physicochemical
Conditions: HPLC percent area
Method: The percentages of related substances were measured using an HPLC.
Stock promethazine HCl selectivity solution was prepared by accurately weighing about 2 mg of EP promethazine for peak identification CRS and transferring into 1 mL of diluent (prepared by mixing 750 mL of mobile phase A and 250 mL of acetonitrile), followed by vortexing to dissolve.
Ten capsules were randomly selected and weighed. The contents of the ten capsules were emptied into a 500 mL volumetric flask. 300 mL of diluent was added and the mixture was sonicated in an ice bath for 40 minutes or until completely disintegrated with intermittent swirling. The temperature was equilibrated to room temperature and more diluent was added to volume.
Promethazine HCl impurity sample solution: stock solution sample was filtered through a 0.45 μm PVDF membrane, syringe filter or a 0.45 μm PTFE w/GMF membrane, syringe filter discarding the first 5 mL and collecting approximately 20 mL into an appropriate glass container. Fill an HPLC vial with the filtrate
The RT of the promethazine in the promethazine HCl selectivity solution is between 44.1 and 53.9.
Mobile Phase B: 0.2% TFA in Acetonitrile, which was prepared by mixing well 2.0 ml of trifluoroacetic acid to 1 L of acetonitrile; and Gradient used was as follows in Table 15.
All known and unknown impurities were calculated via percent area as follow:
[formula] Where: • Ru=Peak area of related substance in the sample solution • Rt=Sum of peak area of promethazine or sumatriptan and all related substances areas corresponding to respective peak in sample solution • RRF=Relative Response Factor for related substances
The formulation was examined for its stability after one month at 40° C.

## CC(CN1c2ccccc2Sc2ccccc21)N(C)C (centres unmarked) [Promethazine, Promethazine Hydrochloride]
In a capsule stored at 40° C. for 1 month
  Impurity percentages, all related substances combined: 0.2%
In a capsule, initial (before storage)
  Impurity percentages, all related substances combined: 0.3%

Source: patent US10772840B2 (Charleston Laboratories, Inc., priority 2016, dated 2020)
